Data reported in patent publication US6015820A, “4-Aryl-thio-pyridin-2(1H)-ones, medicines containing them and their uses in the treatment of illnesses linked to HIV” (priority 1995, dated 2000).
Read-outs that look alike come from different tables or passages of the source.

Key:
[1] = molecular target: T1, IT of recombinant HIV-1 (Human immunodeficiency virus type 1 group M subtype B, UniProt P03369); test: inhibition of the inverse transcriptase of recombinant HIV-1; type: biochemical
T1 construct: purify the IT enzyme of the recombinant HIV-1; made in house; host or cells: yeast cells transformed with the pAB 24/IT-4 vector
Description: Yeast cells transformed with the pAB 24/IT-4 vector were used to purify the IT enzyme of the recombinant HIV-1 as described by Sallafranque-Andreola et al. (1989 Eur. J. Biochem. 184, 364-374).
Incubation was carried out at 37° C. for 10 minutes in the presence of various matrix-primers.
a) Poly C-oligo dG: the reaction mixture contained a final volume of 0.05 ml, Tris-HCl 50 mM pH 8.0, MgCl2 5 mM, dithiothreitol 4 mM, 0.48 A260 /ml of poly C-oligo dG (5:1), 1.0 μCi of [^3 H]dGTP (28 Ci/mmole), dGTP 2 μM, KCl 80 mM, 1 μg of bovine serum albumin and IT 20-50 nM.
b) Poly A-oligo dT: the same conditions as in a), except that 0.48 A260 /ml of poly A-oligo dT (5:1), 0.5 μCi of [^3 H]dTTP (46 Ci/mmole), dTTP 20 μM were used.
The reactions were stopped by adding in the cold 1 ml of 10% trichloroacetic acid plus sodium pyrophosphate 0.1 M. The precipitates were filtered through nitrocellulose membranes, washed with 2% trichloroacetic acid, dried and counted in a PPO/POPOP/toluene scintillation mixture.
All the compounds were dissolved in dimethyl#sulphoxide (DMSO). The test samples were prepared in the presence of the same final concentration of DMSO. IC50 is the concentration required to inhibit the activity of the IT of the recombinant HIV-1 by 50%.

[2] = tested on: HIV-1 LAI; test: anti-HIV-1 activity: replication of HIV-1 LAI on CEM-SS cells; type: cell-based; details: Table 2, HIV-1 LAI, CEM-SS cells; for IC50: Human immunodeficiency virus 1, 120 h, 5 days, read-out: IC50, anti-HIV-1 activity
Description: (§1) The CEM-SS and the HIV-1 resistant to Nevirapine (N119) carrying a point mutation at codon 181 of the IT, were supplied respectively by P. NARA and D. RICHMAN through the intermediary of the AIDS Research and Reference Reagent Program, Division of AIDS, NIAID, NIH (USA) (Catalogue references : No. 776 and No. 1392).
(§2) The virus production was measured by quantifying the activity of the inverse transcriptase associated with viral particles released into the culture supernatant. In short, cells were infected with 100 TCID50 for 30 minutes; after adsorption of the virus, unbound particles were removed by two washings and the cells were cultivated in the presence of different concentrations of the compounds tested for 5 days before determining the viral production. The concentration inhibiting 50% of the viral multiplication (IC50) came from the computer plot of the median effect of the dose effect results (Chou et al. Elsevier Science Publishers, Cambridge U.K. (1985), 19-28).

[3] = tested on: HIV-1 resistant to Nevirapine (N119); test: microbe, parasite or virus in culture; type: cell-based; details: for IC50: Human immunodeficiency virus 1, CEM-SS, read-out: IC50, strain resistant to Nevirapine; for SI (selectivity index): Table 3, strain resistant to Nevirapine
Description: as §1, with “The effects of the compounds were evaluated on the replication of HIV-1 (see Table 2) on CEM-SS cells (cell lines of the lymphocytic lineage) strongly infected with HIV-1 LAI as described by Moog et al. (Antiviral Research (1994), 24, 275-288). The” for “The”
as §2

[4] = cytotoxicity on non-infected cells (MTT test); type: cell-based; details: human; Table 2; non-infected CEM-SS cells, MTT, 5 days
Description: (§3) In parallel experiments, the cytotoxicity of the molecules was measured on non-infected cells, after an incubation of 5 days in the presence of these molecules, by using a […] titration (MTT test) based on the ability of the mitochondrial dehydrogenases of the living cells to reduce 3-(4,5-dimethylthiazol-2-yl)-2,5-diphenyltetrazolium bromide in formazan (Mosmann et al. J. Immunol. Methods ([…]), 65, 55-63). The concentration cytotoxic at 50% (CC50) is the concentration at which the DO540 has been reduced to half and is calculated by using the program mentioned above.

[5] = tested on: CEM-SS cells; test: cytotoxicity on non-infected cells (MTT test); type: cell-based; details: MTT, 5 days
Description: as §3

[6] = tested on: isolated virion HIV-1LAI; test: infectivity of the isolated virion after treatment with inhibitors (HT4LacZ cells); type: cell-based
Description: H9 cells chronically infected with HIV-1LAI (10^8 /ml) were cocultivated with MT4 cells (10^8 /ml) for 48 hours in an RMPI medium supplemented by 10% of calf foetal serum (CFS). The cells were then removed by centrifugation and then the supernatant liquid was filtered (0.45 μm) to remove residual cells and cell debris.
After having been incubated with the various inhibitors, the viral supernatants (200 μl) were deposited in the filtering part of a VectaSpin tube (WHATMAN) fitted with an ANAPORE membrane of porosity 0.02 μm. For 10 minutes they were subjected to centrifugation, the acceleration of which reached 6000 g at the filtering membrane. The viral residuums thereby obtained (10-15 μl ) were washed 3 times under the same conditions with 500 μl of RPMI then restored to their initial volumes with RPMI containing 10% of CFS.
The HT4LacZ-1 cells were kept in a DMEM medium (glucose 4.5 g/l) supplemented with 10% of calf foetal serum in the presence of Gentamycin (50 mg/l). These cells stemmed from Hela cells in which had been cloned, on the one hand the gene coding for the human CD4 so as to render them susceptible to infection by the HIV (Chesebro and Wehrly, 1988, J. Virol., 62, 3779-3788), and on the other hand the gene for β-Galactosidase which, placed under the dependent of the LTR of the HIV-1 served as a marker for the viral infection (Rocancourt et al. (1990) J. Virol. 1990 64-6, 2660-2688). When the virus infects such cells after its integration into the cellular genome, the production of the regulatory protein TAT activates the LTR of the HIV. The result is an activation of the gene of β-Galactosidase which leads to its production in the intracellular medium and more particularly in the nucleus. It is this protein that serves as a marker of the infection.
The evening of day 0, the HT4LacZ-1 cells were diluted at the rate of 75000 cells per ml of medium. 100 μl of this suspension was then distributed over a flat bottomed plate with 96 wells and was cultivated overnight at 37° C. (5% of CO2).
The morning of day 1, the supernatant liquid was removed by aspiration. Each well was then complemented with 200 μl of the viral supernatant dilutions to be tested. Each dilution was made in a DMEM medium (glucose 4.5 g/l) supplemented with 10% of CFS. The plates were then placed in an environment at 37° C. in the presence of 5% of CO2.
After 48 hours of culture, the supernatant liquid was aspirated, then each well was washed 3 times in PBS before being complemented with 200 μl of developing buffer (Tris-HCl 50 mM pH=8.5, ONPG 5 mg/ml β-mercapto-ethanol 7 μl/ml Triton×100 0.05%). After 4 hours of incubation at 37° C., the optical density of each well was measured.
The concentration of each of the inhibitors of the IT of the HIV-1 was adjusted to 50 mM in DMSO. The later dilutions were carried out on RPMI 1640. 2 μl of suitable dilutions of each of these inhibitors were added to 198 μl of a freshly unfrozen viral suspension. After 3 hours of incubation at ambient temperature, these suspensions were filtered on 0.02 μ VecraSpin tubes, then washed 3 times with 500 μl of RPMI 1640. The viral residuums were then adjusted to 200 μL with the culture medium (RPMI-10% CFS), then tested with regard to their infectivity on HT4LacZ cells.

Row | SMILES | IC50 [1] [µM] | IC50 [2] [µM] | SI (selectivity index) [2] | IC50 [3] [µM] | CC50 at 120 h [4] [µM] | CC50 ([5]; Table 3, non-infected cells) [µM] | SI (selectivity index) [3] | CC50 ([5]; Table 2, non-infected CEM-SS cells) [µM] | IC50 ([1]; read-out: IC50, inhibition of the inverse transcriptase, Table 5, IT of recombinant HIV-1) [µM] | activity at 1 µM ([6]; Human immunodeficiency virus 1, 1 μM inhibitor, 3 h, 100 TCID50, compared with viral supernatant subjected to same treatments, mean of 1 to 4 experiments, read-out: Activity of the isolated virions after treatment) [%] | activity at 10 µM ([6]; Human immunodeficiency virus 1, 10 μM inhibitor, 3 h, 100 TCID50, compared with viral supernatant subjected to same treatments, mean of 1 to 4 experiments, read-out: Activity of the isolated virions after treatment) [%] | activity on the isolated virion (in words) ([6]; isolated virion)
1 | Cc1c(Sc2ccccc2)n(COCc2ccccc2)c(=O)[nH]c1=O [BPT, 1-benzyloxymethyl-6-(phenylthio)thymine, reference compound] | 0.4 |  |  |  |  |  |  |  |  |  |  | 
2 | Cc1cc(C)cc(Sc2c(C)cnc(O)c2[N+](=O)[O-])c1 [Compound 7a, 5-methyl-3-nitro-4-(3', 5'-dimethylphenyl)thiopyridin-2(1H)-one] | > 10 | 0.12 | > 83 | > 10 | > 10 | > 10 |  |  |  |  |  | 
3 | CCc1cnc(O)c([N+](=O)[O-])c1Sc1cc(C)cc(C)c1 [Compound 7b, 5-ethyl-3-nitro-4-(3', 5'-dimethylphenyl)thio-pyridin-2(1H)-one] |  |  | > 111 | 6.7 | > 10 | > 10 | > 1 |  |  |  |  | 
4 | Cc1cccc(Sc2c(C)c[nH]c(=O)c2[N+](=O)[O-])c1 [Compound 7e, 5-methyl-3-nitro-4-(3'-methylphenyl)thio-pyridin-2(1H)-one] | > 10 |  |  |  | > 10 |  |  |  |  |  |  | 
5 | Cc1cc(C)cc(Sc2c([N+](=O)[O-])c(O)nc3ccccc23)c1 [Compound 7f, 3-nitro-4-(3', 5'-dimethylphenyl)-thiopuinoline-2(1H)-one] |  | 3.8 | > 26 | > 10 |  | > 10 |  | > 100 |  |  |  | 
6 | Cc1cc(C)cc(Sc2c(C)cnc(O)c2N)c1 [Compound 8a, 3-amino-5-methyl-4-(3', 5'-dimethylphenyl)-thio-pyridin-2(1H)-one] | 0.1 | 0.01 | > 1000 | > 10 | > 10 | > 10 |  |  |  |  |  | 
7 | CCc1cnc(O)c(N)c1Sc1cc(C)cc(C)c1 [Compound 8b, 3-amino-5-ethyl-4-(3', 5'-dimethylphenyl)thio-pyridin-2(1H)-one] |  | 0.01 | > 1000 | 6.7 | > 10 | > 10 | > 1 |  |  |  |  | 
8 | Cc1cccc(Sc2c(C)c[nH]c(=O)c2N)c1 [Compound 8e] |  | 1.4 | > 55 | 41.5 | 78 |  | > 1 |  | > 4 |  |  | 
9 | Cc1cc(C)cc(Sc2c(N)c(O)nc3ccccc23)c1 [Compound 8f, 3-amino-4-(3', 5'-dimethylphenyl)-thio-quinoline-2(1H)-one] |  | 0.25 | > 36 | 6.6 | > 9 | 8.2 | > 1.5 |  |  |  |  | 
10 | CC(=O)Nc1c(Sc2cc(C)cc(C)c2)c(C)c[nH]c1=O [Compound 11b, 3-acetamido-5-methyl-4-(3', 5'-dimethylphenyl)thio-pyridin-2(1H)-one] | > 4 | 0.067 | > 1492 | > 100 | > 100 | > 100 |  |  |  |  |  | 
11 | CCC(=O)Nc1c(Sc2cc(C)cc(C)c2)c(C)c[nH]c1=O [Compound 11c, 5-methyl-3-propionamido-4-(3', 5'-dimethylphenyl)thio-pyridin-2(1H)-one] | > 4 | 41.4 | > 2 |  | > 100 |  |  |  |  |  |  | 
12 | CCc1c(C)nc(O)c(NC(C)=O)c1Sc1cc(C)cc(C)c1 [Compound 11g, 3-acetamido-5-ethyl-6-methyl-4-(3', 5'-dimethylphenyl)thio-pyridin-2(1H)-one] |  | 0.05 | > 1600 | 4.3 | > 80 | > 100 | > 23 |  |  |  |  | 
13 | CCc1c(Sc2cc(C)cc(C)c2)cc(=O)[nH]c1C [Compound 16, 5-ethyl-6-methyl-4-(3', 5'-dimethylphenyl)thio-pyridin-2(1H)-one] | 0.4 | 0.5 | > 20 |  | > 10 |  |  |  |  |  |  | 
14 | Cc1c(Sc2ccccc2)n(COCCO)c(=O)[nH]c1=O [HEPT, 1-[(2-hydroxyethoxy)methyl]-6-(phenylthio)thymine] | > 6 |  |  |  |  |  |  |  |  | 121 | 141 | totally inactive
